Experimental data as given in US11925632B2, “Isoquinoline derivatives for use in treating GLUT1 deficiency syndrome” (GLIAPHARM SA, priority 2019, dated 2024).

Columns and labels:
primary astrocytes = assay: Intracellular glycogen quantification; assay type: cell-based, mouse; settings: 10 μM, 3 h, vs vehicle
Experimental: Primary cultures of cerebrocortical astrocytes were obtained from 1 to 2-day-old OF1 mouse pups (Charles River). Briefly, cortices were isolated and minced in small pieces under a dissecting microscope. The cells were incubated for 30 min at 37° C. in a solution containing 20 U/ml papain, 1 mM L-cysteine and 10 kU/ml DNase I. After dissociation, papain activity was stopped by the addition of fetal calf serum (FCS). Single-cell suspension was then obtained by mechanical dissociation, which consisted in cells trituration in a DMEM D7777 medium supplemented with 44 mm NaHCO3, 10 ml/L antibiotic/antimycotic solution and 10% FCS. […]
Astrocytes grown on 12-well plates were used for intracellular glycogen quantifications. […]
First, the amount of proteins in each sample was quantified to assess whether harvested astrocytes from primary cell cultures yielded enough and equivalent amounts of proteins on each replicates. Proteins were quantified using the micro BCA Protein Assay kit (Thermo Scientific), according to manufacturer's instructions. Next, intracellular glycogen concentrations were quantified using a 250 μl-aliquot of the same stimulated, thawed, and sonicated cell lysate. […] Fluorescence intensity (340 nm excitation/440 nm emission) was measured using a Safire 2 spectrophotometer. […]

GLUT1-DS mice = assay: Cerebral extracellular lactate and glucose biosensors, GLUT1-DS transgenic mice; assay type: in vivo, mouse; settings: medial prefrontal cortex, 10 mg/kg and/or 100 mg/kg oral, AUC ratio vs vehicle
Text: Transgenic mice on 129/SvJ genetic background in which GLUT1 has been knocked-down (GLUT1-DS mice) were used (Wang et al., […], Human Molecular Genetics, 15(7)). Mating colonies were composed of wild-type female mice and GLUT1-DS male mice, or GLUT1-DS female mice and wild-type male mice. F1 pups were genotyped after ear punching at weaning using PCR to determine genotype. Mice of 2 to 3 months of age were used.
Cerebral extracellular levels of lactate and glucose were monitored in vivo in GLUT1-DS transgenic male mice and wild-type (WT) male littermates using lactate and glucose biosensors (Pinnacle Technology), according to the manufacturer's instructions. […] After surgery, mice were monitored closely and received analgesic treatment for at least 4 days. After mice had fully recovered from surgery, compounds of the invention of vehicle were administered per os as previously described and cerebral levels of extracellular lactate or glucose were dynamically recorded for 6 hours using lactate or glucose biosensors, respectively. […] Concentration of cerebral extracellular lactate or glucose was calculated from lactate or glucose probe electric signals, respectively, using post-calibration values, as described by manufacturer. […]

COc1cc2ccnc(Nc3ccc(OC(F)(F)F)cc3)c2cc1OC [Example 1, 6,7-dimethoxy-N-(4-(trifluoromethoxy)phenyl)isoquinolin-1-amine]
Intracellular glycogen levels (primary astrocytes): significantly enhances the degradation of intracellular glycogen
Extracellular glucose levels in the brain (GLUT1-DS mice): significantly increases
Extracellular lactate levels in the brain (GLUT1-DS mice): significantly increases
